We go through 17 compounds from publication PMC9683047, “Design, synthesis and biological evaluation of 4-aminoquinoline derivatives as receptor-interacting protein kinase 2 (RIPK2) inhibitors” (Journal of Enzyme Inhibition and Medicinal Chemistry, 2022).

SMILES strings stand for the structures.

The target of experiment [1] is T1, RIPK2 (Homo sapiens, UniProt O43353).
T1 construct: purchased Promega
Briefly: RIPK2 kinase inhibition assay (ADP-Glo). The class given is biochemical. Particulars: mean ± SD from two separate experiments. On the procedure: RIPK2 kinase activity was analysed using the ADP-Glo™ Assay Kit (RIPK2 Kinase Enzyme System, Promega, USA). Reactions were performed according to the instructions. Specific signal was calculated by subtracting values in the wells without protein and inhibitor from the values in the test wells.
A general note: In ADP-Glo the light output rises with the ADP produced.

In experiment [2] the target is T1, RIPK2. The experiment in a line: Lipophilic ligand efficiency (LipE). The conditions noted are these: LipE = pIC50 − ClogP.

T1 sequence (O43353 whole entry): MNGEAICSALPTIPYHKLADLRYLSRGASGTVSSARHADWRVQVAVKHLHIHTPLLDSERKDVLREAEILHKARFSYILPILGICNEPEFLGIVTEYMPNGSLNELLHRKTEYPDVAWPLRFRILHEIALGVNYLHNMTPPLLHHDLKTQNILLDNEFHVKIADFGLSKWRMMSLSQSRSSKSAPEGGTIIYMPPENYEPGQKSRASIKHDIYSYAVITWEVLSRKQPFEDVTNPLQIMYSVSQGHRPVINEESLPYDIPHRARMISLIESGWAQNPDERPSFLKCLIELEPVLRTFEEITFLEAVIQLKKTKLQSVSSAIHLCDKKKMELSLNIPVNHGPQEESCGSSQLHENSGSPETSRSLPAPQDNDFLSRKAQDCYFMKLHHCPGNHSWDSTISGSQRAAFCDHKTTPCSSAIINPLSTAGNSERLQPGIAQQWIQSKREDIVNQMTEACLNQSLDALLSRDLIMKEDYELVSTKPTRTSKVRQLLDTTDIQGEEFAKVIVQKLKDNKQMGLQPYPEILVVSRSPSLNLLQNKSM

For orientation: IC50 means the point on the concentration scale where inhibition reaches its midpoint. High values mean weaker potency, low ones greater potency. In the case of `c1cc(Nc2ccc3scnc3c2)c2cc(-c3ccnc4[nH]ccc34)ccc2n1` [Compound 28, N-(6-(1H-pyrrolo[2,3-b]pyridin-4-yl)quinolin-4-yl)benzo[d]thiazol-5-amine], the IC50 at RIPK2 [1] is 7.3 ± 3.5 nM. Further, the LipE on RIPK2 [2] is 3.46.

In turn, `c1cc(Nc2ccc3scnc3c2)c2cc(-c3cn[nH]c3)ccc2n1` [Compound 20, N-(6-(1H-pyrazol-4-yl)quinolin-4-yl)benzo[d]thiazol-5-amine] displayed an IC50 at RIPK2 [1] of 8.2 ± 1.6 nM. The same compound had a LipE on RIPK2 [2] of 3.04.

As for `Fc1cc(Nc2ccnc3ccc(Br)cc23)ccc1Cl` [Compound 5, 6-Bromo-N-(4-chloro-3-fluorophenyl)quinolin-4-amine], the IC50 against RIPK2 [1] was 31.4 ± 6.2 nM. On RIPK2 [2], this compound came in with a LipE of 2.78.

In turn, `Brc1ccc2nccc(Nc3ccccc3)c2c1` [Compound 1, 6-Bromo-N-phenylquinolin-4-amine] had an IC50 against RIPK2 [1] of 243 ± 14.8 nM. Further, the LipE at RIPK2 [2] was determined as 2.57.

Take `Brc1ccc2nccc(Nc3ccncc3)c2c1` [Compound 9, 6-Bromo-N-(pyridin-4-yl)quinolin-4-amine]: the IC50 against RIPK2 [1] came to 421 ± 106 nM. Further, the LipE on RIPK2 [2] turned out to be 3.24.

The compound `COc1cc(Nc2ccnc3ccc(-c4cn[nH]c4)cc23)cc(OC)c1OC` [Compound 37, 6–(1 h-pyrazol-4-yl)-N-(3,4,5-trimethoxyphenyl)quinolin-4-amine] showed an IC50 at RIPK2 [1] of 14.5 ± 5.6 nM. This compound yielded a LipE at RIPK2 [2] of 4.22.

The compound `Brc1ccc2nccc(Nc3ccc4ncsc4c3)c2c1` [Compound 11, N-(6-bromoquinolin-4-yl)benzo[d]thiazol-6-amine] displayed an IC50 against RIPK2 [1] of 82.3 ± 12.2 nM. The same compound yielded a LipE on RIPK2 [2] of 3.21.

In turn, `Cc1nn(C)cc1-c1ccc2nccc(Nc3ccc4scnc4c3)c2c1` [Compound 23, N-(6–(1,3-dimethyl-1H-pyrazol-4-yl)quinolin-4-yl)benzo[d]thiazol-5-amine] came in with an IC50 on RIPK2 [1] of 9.5 ± 3.7 nM. Also, at RIPK2 [2], the LipE was determined as 2.92.

The compound `Cc1cscc1-c1ccc2nccc(Nc3ccc4scnc4c3)c2c1` [Compound 24, N-(6–(4-methylthiophen-3-yl)quinolin-4-yl)benzo[d]thiazol-5-amine] came in with an IC50 against RIPK2 [1] of 19.6 ± 12 nM. The compound also showed a LipE on RIPK2 [2] of 2.37.

As for `c1ccc2c(-c3ccc4nccc(Nc5ccc6scnc6c5)c4c3)cncc2c1` [Compound 29, N-(6-(isoquinolin-4-yl)quinolin-4-yl)benzo[d]thiazol-5-amine], at RIPK2 [1], the IC50 worked out at 17.2 ± 2.3 nM. Besides, the LipE at RIPK2 [2] is reported as 3.81.

With `COc1cccc(Nc2ccnc3ccc(Br)cc23)c1` [Compound 2, 6-Bromo-N-(3-methoxyphenyl)quinolin-4-amine], inhibition against RIPK2 [1] was half-maximal at 54.8 ± 3.4 nM (IC50). The LipE on RIPK2 [2] came out at 3.10.

In turn, `c1ncc(-c2ccc3nccc(Nc4ccc5scnc5c4)c3c2)cn1` [Compound 17, N-(6-(pyrimidin-5-yl)quinolin-4-yl)benzo[d]thiazol-5-amine] returned an IC50 on RIPK2 [1] of 1.5 ± 0.3 nM. For the same compound, the LipE on RIPK2 [2] is recorded as 2.80.

With `c1ccc(-c2ccc3nccc(Nc4ccc5scnc5c4)c3c2)nc1` [Compound 16, N-(6-(pyridin-2-yl)quinolin-4-yl)benzo[d]thiazol-5-amine], the IC50 on RIPK2 [1] was found to be 3.6 ± 1.4 nM. In addition, the LipE on RIPK2 [2] is 4.11.

`CC(=O)c1cccc(Nc2ccnc3ccc(Br)cc23)c1` [Compound 4, 1–(3-((6-Bromoquinolin-4-yl)amino)phenyl)ethan-1-one] returned an IC50 against RIPK2 [1] of 92.5 ± 22.1 nM. Further, the LipE at RIPK2 [2] is listed as 3.50.

`CC(C)Oc1cccc(Nc2ccnc3ccc(Br)cc23)c1` [Compound 3, 6-Bromo-N-(3-isopropoxyphenyl)quinolin-4-amine]: on RIPK2 [1], the 50% inhibitory concentration (IC50) was more than 1000 nM and the “RIPK2 IC50” value was “loss of the activity”.

At RIPK2 [1], `c1cc(-c2ccc3nccc(Nc4ccc5scnc5c4)c3c2)c2cn[nH]c2c1` [Compound 27, N-(6-(1H-indazol-4-yl)quinolin-4-yl)benzo[d]thiazol-5-amine] had an IC50 of 3.7 ± 0.4 nM.

The compound `Brc1ccc2nccc(Nc3ccccn3)c2c1` [Compound 7, 6-Bromo-N-(pyridin-2-yl)quinolin-4-amine] gave a 50% inhibitory concentration (IC50) on RIPK2 [1] of more than 1000 nM.
